In US11807625B2, “Capsid inhibitors for the prevention of HIV” (Gilead Sciences, Inc., priority 2019, dated 2023):

Test: PK of compound of Formula (Ia) after single subcutaneous dose of solution formulations in Wistar Han rats
Assay type: in vivo
Conditions: male, Wistar Han, rat, plasma, sc, 50 mg/kg, SC 50 mg/kg
Description: Formulations containing the compound of Formula (Ia), or a pharmaceutically acceptable salt thereof, were prepared as solutions and optionally administered subcutaneously or intramuscularly to rats, rabbits, and/or dogs.
(§1) A solution of about 400 mg/mL of the compound of Formula (Ia) having 19.14 w/w % water, 40.66 w/w % PEG 300, 35.20 w/w % of a sodium salt of a compound of Formula (Ia), and 5.00% ethanol was prepared. The solution was administered subcutaneously to male Wistar Han rats at a dose level of about 50 mg/kg and dose volume of 0.125 mL/kg and the pharmacokinetic (PK) profile was determined.
as §1, with “500” for “400”, “16.64” for “19.14”, “35.36” for “40.66”, “43.00” for “35.20”, “0.1” for “0.125”
(§2) A solution of about 400 mg/mL of the compound of Formula (Ia) having 17.00 w/w % water, 36.40 w/w % PEG 300, 35.20 w/w % of a sodium salt of a compound of Formula (Ia), 5.00 w/w % ethanol, and 6.40 w/w % poloxamer 188 was prepared. The solution was administered subcutaneously to male beagle dogs at a dose level of about 12 mg/kg and male Wistar Han rats at a dose level of about 50 mg/kg. The pharmacokinetic profiles were determined, and the results for dogs are summarized in Table and Table, while the results for rats are summarized in Table and Table below.
as §2, with “500” for “400”, “14.06” for “17.00”, “30.12” for “36.40”
A solution of about 300 mg/mL of the compound of Formula (Ia) having 23.33 w/w % water, 48.99 w/w % PEG 300, 26.47 w/w % of a sodium salt of a compound of Formula (Ia), and 1.21 w/w % poloxamer 188 was prepared. The solution was administered subcutaneously to male beagle dogs at a dose level of about 6 mg/kg and male Wistar Han rats at a dose level of about 50 mg/kg. The pharmacokinetic profiles were determined, and the results for dogs are summarized in Table and Table, while the results for rats are summarized in Table and Table below.
as §2, with “18.80” for “17.00”, “40.25” for “36.40”, “34.38” for “35.20”, “1.57” for “6.40”
as §2, with “500” for “400”, “16.29” for “17.00”, “34.88” for “36.40”, “41.92” for “35.20”, “1.91” for “6.40”
A solution of about 400 mg/mL of the compound of Formula (Ia) having 20.90 w/w % water, 44.72 w/w % PEG 300, and 34.38 w/w % of a sodium salt of a compound of Formula (Ia) was prepared. […]

[1] = mean, n = 3 rats, solution R, 400 mg/mL
[2] = mean, n = 3 rats, solution S, 500 mg/mL
[3] = mean, n = 3 rats, solution V, 300 mg/mL
[4] = mean, n = 5 rats, solution T, 400 mg/mL
[5] = mean, n = 5 rats, solution U, 500 mg/mL
[6] = individual rats, solution R, 400 mg/mL
[7] = individual rats, solution S, 500 mg/mL
[8] = individual rats, solution V, 300 mg/mL
[9] = mean (rat #1 NS), solution T, 400 mg/mL
[10] = Wistar Han rats, 400 mg/mL solution AA (6.25% poloxamer 188), Mean n = 4
[11] = Wistar Han rats, 400 mg/mL solution AA (6.25% poloxamer 188), animals #1-#4

`CC(C)(C#Cc1ccc(-c2ccc(Cl)c3c(NS(C)(=O)=O)nn(CC(F)(F)F)c23)c([C@H](Cc2cc(F)cc(F)c2)NC(=O)Cn2nc(C(F)(F)F)c3c2C(F)(F)[C@@H]2C[C@H]32)n1)S(C)(=O)=O` [compound of Formula (Ia)] showed a concentration at 672 h [1] of 339 nM, a concentration at 672 h [2] of 296 nM and a concentration at 672 h [3] of 308 nM. The concentration at 672 h [4] was 298 nM, the concentration at 672 h [5] was 296 nM and the concentration at 840 h [6] was 295 nM. For the same compound, the concentration at 840 h [7] was 429 nM, the concentration at 840 h [8] was 285 nM and the concentration at 840 h [1] was 350 nM. For the same compound, the concentration at 840 h [2] was 300 nM, the concentration at 840 h [3] was 308 nM and the concentration at 840 h [4] was 215 nM. The concentration at 840 h [5] was 261 nM, the concentration at 1008 h [6] was 303 nM and the concentration at 1008 h [1] was 354 nM. For the same compound, the concentration at 1008 h [2] was 300 nM, the concentration at 1008 h [3] was 258 nM and the concentration at 1008 h [4] was 207 nM. It also gave a concentration at 1008 h [5] of 284 nM, a concentration at 1334 h [6] of 296 nM and a concentration at 1334 h [7] of 398 nM. For the same compound, the concentration at 1334 h [1] was 328 nM, the concentration at 1334 h [2] was 300 nM and the concentration at 1344 h [8] was 272 nM. For the same compound, the concentration at 1344 h [3] was 301 nM, the concentration at 1344 h [4] was 159 nM and the concentration at 1344 h [5] was 226 nM. The concentration at 1680 h [6] was 271 nM, the concentration at 1680 h [7] was 342 nM and the concentration at 1680 h [8] was 221 nM. It also gave a concentration at 1680 h [9] of 145 nM, a concentration at 1680 h [1] of 277 nM and a concentration at 1680 h [2] of 249 nM. For the same compound, the concentration at 1680 h [3] was 250 nM, the concentration at 1680 h [5] was 198 nM and the concentration at 2016 h [6] was 199 nM. For the same compound, the concentration at 2016 h [7] was 221 nM, the concentration at 2016 h [8] was 138 nM and the concentration at 2016 h [9] was 140 nM. For the same compound, the concentration at 2016 h [1] was 202 nM, the concentration at 2016 h [2] was 171 nM and the concentration at 2016 h [3] was 181 nM. For the same compound, the concentration at 2016 h [5] was 174 nM, the concentration at 2352 h [6] was 183 nM and the concentration at 2352 h [7] was 231 nM. For the same compound, the concentration at 2352 h [8] was 122 nM, the concentration at 2352 h [9] was 117 nM and the concentration at 2352 h [1] was 182 nM. It also gave a concentration at 2352 h [2] of 173 nM, a concentration at 2352 h [3] of 165 nM and a concentration at 2352 h [5] of 167 nM. The concentration at 2688 h [6] was 168 nM, the concentration at 2688 h [7] was 171 nM and the concentration at 2688 h [8] was 113 nM. For the same compound, the concentration at 2688 h [9] was 162 nM, the concentration at 2688 h [1] was 154 nM and the concentration at 2688 h [2] was 148 nM. It also gave a concentration at 2688 h [3] of 141 nM, a concentration at 2688 h [5] of 108 nM and a concentration at 3024 h [6] of 136 nM. For the same compound, the concentration at 3024 h [7] was 125 nM, the concentration at 3024 h [8] was 81.4 nM and the concentration at 3024 h [9] was 131 nM. For the same compound, the concentration at 3024 h [1] was 122 nM, the concentration at 3024 h [2] was 108 nM and the concentration at 3024 h [3] was 99.1 nM. The concentration at 3024 h [5] was 102 nM, the concentration at 3360 h [6] was 132 nM and the concentration at 3360 h [7] was 135 nM. The concentration at 3360 h [8] was 81.1 nM, the concentration at 3360 h [9] was 117 nM and the concentration at 3360 h [1] was 111 nM. The concentration at 3360 h [2] was 110 nM, the concentration at 3360 h [3] was 77.4 nM and the concentration at 3360 h [5] was 88 nM. It also gave a concentration at 3696 h [7] of 102 nM, a concentration at 3696 h [8] of 72.2 nM and a concentration at 3696 h [9] of 73.7 nM. It also gave a concentration at 3696 h [1] of 94.8 nM, a concentration at 3696 h [2] of 92 nM and a concentration at 3696 h [3] of 68.4 nM. The concentration at 3696 h [5] was 70.5 nM, the concentration at 4032 h [7] was 118 nM and the concentration at 4032 h [8] was 56.6 nM. For the same compound, the concentration at 4032 h [9] was 71.5 nM, the concentration at 4032 h [1] was 102 nM and the concentration at 4032 h [2] was 110 nM. It also gave a concentration at 4032 h [3] of 52.3 nM, a concentration at 4032 h [5] of 65.7 nM and a concentration at 4704 h [7] of 62.9 nM. It also gave a concentration at 4704 h [8] of 35.9 nM, a concentration at 4704 h [9] of 44.3 nM and a concentration at 4704 h [1] of 69 nM. It also gave a concentration at 4704 h [2] of 71.5 nM, a concentration at 4704 h [3] of 30.2 nM and a concentration at 4704 h [5] of 43.1 nM. For the same compound, the concentration at 5376 h [9] was 34.4 nM, the concentration at 5376 h [1] was 58 nM and the concentration at 5376 h [2] was 58.8 nM. For the same compound, the concentration at 5376 h [5] was 38.9 nM, the concentration at 6048 h [9] was 29 nM and the concentration at 6048 h [1] was 30.2 nM. For the same compound, the concentration at 6048 h [2] was 45 nM, the concentration at 6048 h [5] was 36.2 nM and the concentration at 6720 h [9] was 21.5 nM. For the same compound, the concentration at 6720 h [1] was 26.3 nM, the concentration at 6720 h [2] was 37 nM and the concentration at 6720 h [5] was 26.5 nM. The concentration at 7392 h [1] was 16.5 nM, the concentration at 7392 h [2] was 29.4 nM and the concentration at 8064 h [1] was 12.3 nM. For the same compound, the concentration at 8064 h [2] was 24.8 nM, the concentration at 1 h [10] was 35.9 nM and the concentration at 1 h [11] was 29 nM. For the same compound, the concentration at 3 h [10] was 69.5 nM, the concentration at 3 h [11] was 67.9 nM and the concentration at 8 h [10] was 122 nM. It also gave a concentration at 8 h [11] of 109 nM, a concentration at 24 h [10] of 233 nM and a concentration at 24 h [11] of 259 nM. The concentration at 48 h [10] was 251 nM, the concentration at 48 h [11] was 272 nM and the concentration at 72 h [10] was 227 nM. The concentration at 72 h [11] was 231 nM, the concentration at 96 h [10] was 201 nM and the concentration at 96 h [11] was 211 nM. The concentration at 168 h (Wistar Han rats, 400 mg/mL solution AA (6.25% poloxamer 188), 168 h, Mean n = 4) was 141 nM, the concentration at 336 h (Wistar Han rats, 400 mg/mL solution AA (6.25% poloxamer 188), 336 h, Mean n = 4) was 130 nM and the concentration at 504 h (Wistar Han rats, 400 mg/mL solution AA (6.25% poloxamer 188), 504 h, Mean n = 4) was 131 nM. The concentration at 672 h [10] was 117 nM, the concentration at 672 h [11] was 130 nM and the concentration at 840 h [10] was 118 nM. For the same compound, the concentration at 840 h [11] was 170 nM, the concentration at 1008 h [10] was 103 nM and the concentration at 1008 h [11] was 134 nM. It also gave a concentration at 1344 h [10] of 77.1 nM, a concentration at 1344 h [11] of 93 nM and a concentration at 1680 h [10] of 63.8 nM.
